± gives the standard deviation of the averaged measurements.
Tests used:
Conditions in all cases: exposure time: 72 h
[1] = tested on: E13 (patient-derived glioblastoma stem cells of classical subtype); assay: surviving fraction (nuclei count normalised to DMSO); higher = more cells surviving (less toxic)
[2] = tested on: E21 (patient-derived glioblastoma stem cells of mesenchymal subtype); assay: as above
[3] = tested on: E28 (patient-derived glioblastoma stem cells of classical subtype); assay: as above
[4] = tested on: E31 (patient-derived glioblastoma stem cells of proneural subtype); assay: as above
[5] = tested on: E34 (patient-derived glioblastoma stem cells of proneural subtype); assay: as above
[6] = tested on: E57 (patient-derived glioblastoma stem cells of mesenchymal subtype); assay: as above
[7] = tested on: FT3469 (normal neural stem cell line); assay: as above
[8] = tested on: E13; assay: phenotypic distance (Euclidean, principal components) from DMSO controls (arbitrary units); higher = stronger morphological change
[9] = tested on: E21; assay: as above
[10] = tested on: E28; assay: as above
[11] = tested on: E31; assay: as above
[12] = tested on: E34; assay: as above
[13] = tested on: E57; assay: as above
[14] = tested on: FT3469; assay: as above
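For phenotypic distance (Euclidean, principal components) from DMSO controls in this document: cell Painting imaging in 384-well plates, CellProfiler features reduced to at least 20 principal components, Euclidean distance versus same-plate DMSO vehicle wells (0.1% v/v), median over six images per well.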
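For surviving fraction (nuclei count normalised to DMSO) in this document: nuclei counted by high-content imaging of Hoechst-stained cells in laminin-coated 384-well plates, relative to 0.1% DMSO vehicle wells, with staurosporine as cell-death control.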

Structure (SMILES): CC(C)C(=O)OCC(=O)[C@@]12O[C@H](C3CCCCC3)O[C@@H]1C[C@H]1[C@@H]3CCC4=CC(=O)C=C[C@]4(C)[C@H]3[C@@H](O)C[C@@]12C [Ciclesonide]
- surviving fraction ([1]; 4.1 nM): 0.929
- surviving fraction ([1]; 12.3 nM): 0.899
- surviving fraction ([1]; 37 nM): 0.833
- surviving fraction ([1]; 111.1 nM): 0.908
- surviving fraction ([1]; 333.3 nM): 0.889
- surviving fraction ([1]; 1000 nM): 0.796
- surviving fraction ([1]; 3000 nM): 0.233
- surviving fraction ([2]; 4.1 nM): 1.24
- surviving fraction ([2]; 12.3 nM): 1.23
- surviving fraction ([2]; 37 nM): 1.07
- surviving fraction ([2]; 111.1 nM): 1.17
- surviving fraction ([2]; 333.3 nM): 1.19
- surviving fraction ([2]; 1000 nM): 1.24
- surviving fraction ([2]; 3000 nM): 0.893
- surviving fraction ([3]; 4.1 nM): 1.11
- surviving fraction ([3]; 12.3 nM): 1
- surviving fraction ([3]; 37 nM): 1.26
- surviving fraction ([3]; 111.1 nM): 1.07
- surviving fraction ([3]; 333.3 nM): 0.894
- surviving fraction ([3]; 1000 nM): 1.05
- surviving fraction ([3]; 3000 nM): 0.615
- surviving fraction ([4]; 4.1 nM): 1.24
- surviving fraction ([4]; 12.3 nM): 1.11
- surviving fraction ([4]; 37 nM): 1.33
- surviving fraction ([4]; 111.1 nM): 1.47
- surviving fraction ([4]; 333.3 nM): 1.25
- surviving fraction ([4]; 1000 nM): 1.27
- surviving fraction ([4]; 3000 nM): 0.766
- surviving fraction ([5]; 4.1 nM): 1.04
- surviving fraction ([5]; 12.3 nM): 0.897
- surviving fraction ([5]; 37 nM): 1.13
- surviving fraction ([5]; 111.1 nM): 1.02
- surviving fraction ([5]; 333.3 nM): 1.08
- surviving fraction ([5]; 1000 nM): 1.06
- surviving fraction ([5]; 3000 nM): 0.589
- surviving fraction ([6]; 4.1 nM): 1.08
- surviving fraction ([6]; 12.3 nM): 1.18
- surviving fraction ([6]; 37 nM): 1.1
- surviving fraction ([6]; 111.1 nM): 1.32
- surviving fraction ([6]; 333.3 nM): 1.16
- surviving fraction ([6]; 1000 nM): 1.19
- surviving fraction ([6]; 3000 nM): 0.756
- surviving fraction ([7]; 4.1 nM): 1.1
- surviving fraction ([7]; 12.3 nM): 1.38
- surviving fraction ([7]; 37 nM): 1.15
- surviving fraction ([7]; 111.1 nM): 1.04
- surviving fraction ([7]; 333.3 nM): 1.03
- surviving fraction ([7]; 1000 nM): 1.1
- surviving fraction ([7]; 3000 nM): 0.803
- phenotypic distance ([8]; 4.1 nM): 0.991
- phenotypic distance ([8]; 12.3 nM): 0.745
- phenotypic distance ([8]; 37 nM): 1.05
- phenotypic distance ([8]; 111.1 nM): 1.04
- phenotypic distance ([8]; 333.3 nM): 0.74
- phenotypic distance ([8]; 1000 nM): 1.02
- phenotypic distance ([8]; 3000 nM): 3.25
- phenotypic distance ([9]; 4.1 nM): 1.83
- phenotypic distance ([9]; 12.3 nM): 2.04
- phenotypic distance ([9]; 37 nM): 1.74
- phenotypic distance ([9]; 111.1 nM): 2.02
- phenotypic distance ([9]; 333.3 nM): 2.07
- phenotypic distance ([9]; 1000 nM): 1.89
- phenotypic distance ([9]; 3000 nM): 2.4
- phenotypic distance ([10]; 4.1 nM): 1.16
- phenotypic distance ([10]; 12.3 nM): 0.863
- phenotypic distance ([10]; 37 nM): 1.07
- phenotypic distance ([10]; 111.1 nM): 0.708
- phenotypic distance ([10]; 333.3 nM): 1
- phenotypic distance ([10]; 1000 nM): 0.827
- phenotypic distance ([10]; 3000 nM): 2.3
- phenotypic distance ([11]; 4.1 nM): 2.4
- phenotypic distance ([11]; 12.3 nM): 2.62
- phenotypic distance ([11]; 37 nM): 3
- phenotypic distance ([11]; 111.1 nM): 3.03
- phenotypic distance ([11]; 333.3 nM): 3.06
- phenotypic distance ([11]; 1000 nM): 3.27
- phenotypic distance ([11]; 3000 nM): 2.27
- phenotypic distance ([12]; 4.1 nM): 0.88
- phenotypic distance ([12]; 12.3 nM): 0.851
- phenotypic distance ([12]; 37 nM): 1.45
- phenotypic distance ([12]; 111.1 nM): 1.77
- phenotypic distance ([12]; 333.3 nM): 1.12
- phenotypic distance ([12]; 1000 nM): 0.771
- phenotypic distance ([12]; 3000 nM): 1.4
- phenotypic distance ([13]; 4.1 nM): 1.77
- phenotypic distance ([13]; 12.3 nM): 2.02
- phenotypic distance ([13]; 37 nM): 2.36
- phenotypic distance ([13]; 111.1 nM): 2.51
- phenotypic distance ([13]; 333.3 nM): 2.31
- phenotypic distance ([13]; 1000 nM): 2.44
- phenotypic distance ([13]; 3000 nM): 2.49
- phenotypic distance ([14]; 4.1 nM): 1.45
- phenotypic distance ([14]; 12.3 nM): 1.86
- phenotypic distance ([14]; 37 nM): 1.15
- phenotypic distance ([14]; 111.1 nM): 1.37
- phenotypic distance ([14]; 333.3 nM): 1.4
- phenotypic distance ([14]; 1000 nM): 0.997
- phenotypic distance ([14]; 3000 nM): 0.762

Structure (SMILES): CC(=O)c1cnc2ccc(-c3cc(Cl)c(O)c(Cl)c3)nc2c1N[C@H]1CC[C@H](CN(C)C)CC1 [OTSSP167]
- surviving fraction ([1]; 0.4 nM): 0.96 ± 0.06
- surviving fraction ([1]; 1.2 nM): 0.925 ± 0.12
- surviving fraction ([1]; 3.7 nM): 0.908 ± 0.017
- surviving fraction ([1]; 11.1 nM): 0.685 ± 0.053
- surviving fraction ([1]; 33.3 nM): 0.422 ± 0.024
- surviving fraction ([1]; 100 nM): 0.205 ± 0.014
- surviving fraction ([1]; 300 nM): 0.1423 ± 0.00064
- surviving fraction ([2]; 0.4 nM): 0.988 ± 0.14
- surviving fraction ([2]; 1.2 nM): 1.09 ± 0.052
- surviving fraction ([2]; 3.7 nM): 0.945 ± 0.04
- surviving fraction ([2]; 11.1 nM): 0.737 ± 0.1
- surviving fraction ([2]; 33.3 nM): 0.546 ± 0.034
- surviving fraction ([2]; 100 nM): 0.317 ± 0.0045
- surviving fraction ([2]; 300 nM): 0.161 ± 0.039
- surviving fraction ([3]; 0.4 nM): 1.04 ± 0.15
- surviving fraction ([3]; 1.2 nM): 1.21 ± 0.084
- surviving fraction ([3]; 3.7 nM): 1.16 ± 0.014
- surviving fraction ([3]; 11.1 nM): 0.994 ± 0.16
- surviving fraction ([3]; 33.3 nM): 0.575 ± 0.0076
- surviving fraction ([3]; 100 nM): 0.247 ± 0.07
- surviving fraction ([3]; 300 nM): 0.233 ± 0.032
- surviving fraction ([4]; 0.4 nM): 0.94 ± 0.024
- surviving fraction ([4]; 1.2 nM): 0.896 ± 0.042
- surviving fraction ([4]; 3.7 nM): 1.02 ± 0.073
- surviving fraction ([4]; 11.1 nM): 0.913 ± 0.055
- surviving fraction ([4]; 33.3 nM): 0.59 ± 0.046
- surviving fraction ([4]; 100 nM): 0.196 ± 0.02
- surviving fraction ([4]; 300 nM): 0.0607 ± 0.0042
- surviving fraction ([5]; 0.4 nM): 1 ± 0.055
- surviving fraction ([5]; 1.2 nM): 0.983 ± 0.031
- surviving fraction ([5]; 3.7 nM): 0.947 ± 0.15
- surviving fraction ([5]; 11.1 nM): 0.748 ± 0.15
- surviving fraction ([5]; 33.3 nM): 0.535 ± 0.083
- surviving fraction ([5]; 100 nM): 0.567 ± 0.021
- surviving fraction ([5]; 300 nM): 0.384 ± 0.061
- surviving fraction ([6]; 0.4 nM): 1.43 ± 0.017
- surviving fraction ([6]; 1.2 nM): 1.46 ± 0.088
- surviving fraction ([6]; 3.7 nM): 1.48 ± 0.057
- surviving fraction ([6]; 11.1 nM): 1.23 ± 0.19
- surviving fraction ([6]; 33.3 nM): 0.626 ± 0.052
- surviving fraction ([6]; 100 nM): 0.171 ± 0.0094
- surviving fraction ([6]; 300 nM): 0.108 ± 0.014
- surviving fraction ([7]; 0.4 nM): 1.13 ± 0.11
- surviving fraction ([7]; 1.2 nM): 1.2 ± 0.052
- surviving fraction ([7]; 3.7 nM): 1.08 ± 0.096
- surviving fraction ([7]; 11.1 nM): 0.783 ± 0.13
- surviving fraction ([7]; 33.3 nM): 0.638 ± 0.024
- surviving fraction ([7]; 100 nM): 0.502 ± 0.022
- surviving fraction ([7]; 300 nM): 0.45 ± 0.087
- phenotypic distance ([8]; 0.4 nM): 1.66 ± 1
- phenotypic distance ([8]; 1.2 nM): 1.67 ± 0.18
- phenotypic distance ([8]; 3.7 nM): 2.455 ± 0.011
- phenotypic distance ([8]; 11.1 nM): 3.33 ± 0.64
- phenotypic distance ([8]; 33.3 nM): 6.59 ± 0.11
- phenotypic distance ([8]; 100 nM): 7.76 ± 0.18
- phenotypic distance ([8]; 300 nM): 8.64 ± 0.25
- phenotypic distance ([9]; 0.4 nM): 1.7 ± 0.33
- phenotypic distance ([9]; 1.2 nM): 2.06 ± 0.15
- phenotypic distance ([9]; 3.7 nM): 2.41 ± 0.065
- phenotypic distance ([9]; 11.1 nM): 2.49 ± 0.12
- phenotypic distance ([9]; 33.3 nM): 4.22 ± 0.35
- phenotypic distance ([9]; 100 nM): 4.87 ± 0.3
- phenotypic distance ([9]; 300 nM): 6.25 ± 0.65
- phenotypic distance ([10]; 0.4 nM): 1.32 ± 0.36
- phenotypic distance ([10]; 1.2 nM): 1.49 ± 0.21
- phenotypic distance ([10]; 3.7 nM): 1.75 ± 0.072
- phenotypic distance ([10]; 11.1 nM): 2.62 ± 0.37
- phenotypic distance ([10]; 33.3 nM): 4.37 ± 0.37
- phenotypic distance ([10]; 100 nM): 4.36 ± 0.64
- phenotypic distance ([10]; 300 nM): 4.295 ± 0.011
- phenotypic distance ([11]; 0.4 nM): 1.92 ± 0.57
- phenotypic distance ([11]; 1.2 nM): 2.29 ± 0.21
- phenotypic distance ([11]; 3.7 nM): 2.8 ± 0.15
- phenotypic distance ([11]; 11.1 nM): 2.81 ± 0.06
- phenotypic distance ([11]; 33.3 nM): 2.5 ± 0.18
- phenotypic distance ([11]; 100 nM): 5.33 ± 0.78
- phenotypic distance ([11]; 300 nM): 7.69 ± 2.1
- phenotypic distance ([12]; 0.4 nM): 1.46 ± 0.39
- phenotypic distance ([12]; 1.2 nM): 1.96 ± 1
- phenotypic distance ([12]; 3.7 nM): 1.73 ± 0.11
- phenotypic distance ([12]; 11.1 nM): 2.43 ± 0.65
- phenotypic distance ([12]; 33.3 nM): 3.89 ± 0.15
- phenotypic distance ([12]; 100 nM): 2.89 ± 0.067
- phenotypic distance ([12]; 300 nM): 2.9 ± 0.41
- phenotypic distance ([13]; 0.4 nM): 1.81 ± 0.58
- phenotypic distance ([13]; 1.2 nM): 2.24 ± 0.063
- phenotypic distance ([13]; 3.7 nM): 2.97 ± 0.38
- phenotypic distance ([13]; 11.1 nM): 3.48 ± 0.47
- phenotypic distance ([13]; 33.3 nM): 4.61 ± 0.12
- phenotypic distance ([13]; 100 nM): 7.8122 ± 0.0049
- phenotypic distance ([13]; 300 nM): 5.83 ± 0.19
- phenotypic distance ([14]; 0.4 nM): 2.21 ± 0.61
- phenotypic distance ([14]; 1.2 nM): 2.77 ± 0.063
- phenotypic distance ([14]; 3.7 nM): 3.26 ± 0.47
- phenotypic distance ([14]; 11.1 nM): 3.53 ± 0.41
- phenotypic distance ([14]; 33.3 nM): 4.08 ± 0.32
- phenotypic distance ([14]; 100 nM): 4.14 ± 0.28
- phenotypic distance ([14]; 300 nM): 3.137 ± 0.02

Source: the supplement of paper PMC13207355
